Here are results for 54 compounds from patent US9840481B2, “Allosteric modulators of nicotinic acetylcholine receptors” (MERCK SHARP & DOHME CORP., priority 2016, dated 2017).

Structures are written as SMILES. Read-outs that look alike come from different tables or passages of the source.

The target in this experiment is T1, human α7 nAChR stably expressed in a HEK cell line (with human RIC-3) (Homo sapiens, UniProt P36544).
T1 construct: PrecisION hnAChR α7/RIC-3
Nature of the experiment: Automated patch-clamp electrophysiology functional assay (Assay A), IonFlux HT, whole-cell population patch. In kind it is cell-based. In a few lines: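 Whole-cell population patch clamp (IonFlux HT) used HEK cells stably co-expressing human α7 and RIC-3, held at −60 mV at room temperature. Compounds were applied alone (agonism) or with 40 μM acetylcholine (potentiation), three ascending concentrations per recording. Currents were quantified relative to a 40 μM acetylcholine reference response, giving EC50.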
For orientation: The patch-clamp technique gives a direct electrical read-out from membranes.

The mark [1] stands for this setting: automated patch-clamp electrophysiology functional assay (Assay A), potency class by EC50, read-out: α7 nAChR Potency.
Setting [2] is: electrophysiology EC50, HEK cells expressing human α7/RIC-3, 40 μM acetylcholine, holding potential −60 mV, room temperature, read-out: α7 nAChR EC50.

T1 sequence (P36544 23-502): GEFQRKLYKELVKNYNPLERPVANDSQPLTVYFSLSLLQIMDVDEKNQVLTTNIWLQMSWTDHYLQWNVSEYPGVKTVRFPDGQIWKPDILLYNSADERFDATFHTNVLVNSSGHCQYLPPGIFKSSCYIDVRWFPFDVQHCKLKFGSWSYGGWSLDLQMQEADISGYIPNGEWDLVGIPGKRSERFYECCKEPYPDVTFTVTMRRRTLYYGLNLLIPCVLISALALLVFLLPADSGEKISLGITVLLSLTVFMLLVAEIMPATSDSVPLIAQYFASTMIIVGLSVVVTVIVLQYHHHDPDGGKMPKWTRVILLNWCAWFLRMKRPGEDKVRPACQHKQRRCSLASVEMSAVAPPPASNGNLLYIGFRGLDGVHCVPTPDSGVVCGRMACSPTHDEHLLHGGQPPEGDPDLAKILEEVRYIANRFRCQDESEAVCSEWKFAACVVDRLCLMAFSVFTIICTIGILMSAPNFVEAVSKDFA

As for `CC1(C)[C@@H](c2ccc(S(N)(=O)=O)cc2)[C@@H]1c1noc(-c2ccc3nc(O)sc3c2)n1` [Example I32], the EC50 under setting [1] was 100 to 500 nM. `NS(=O)(=O)c1ccc([C@@H]2C[C@H]2c2noc(-c3cccc(F)c3)n2)cc1` [Example H15]: the EC50 under setting [1] fell in the range of 100 to 500 nM and the EC50 under setting [2] came out at 190 nM. The like results for `CC1(C)[C@H](c2ccc(S(N)(=O)=O)cc2)[C@H]1c1cn(-c2cccc(F)c2)nn1` [Example L5] were, in that order, 500 to 5000 nM and 770 nM. Consider `CC1(C)[C@@H](c2ccc(S(N)(=O)=O)cc2)[C@@H]1c1nc(-c2ccc(C(F)(F)F)nc2)no1` [Example D29], for which, under setting [1], the EC50 lay within 500 to 5000 nM. For the compound `CC(C)(C)c1noc([C@@H]2[C@@H](c3ccc(S(N)(=O)=O)cc3)C2(F)F)n1` [Example B17], the EC50 is, setting by setting: under setting [1], 500 to 5000 nM; under setting [2], 850 nM. With `NS(=O)(=O)c1ccc([C@@H]2C[C@H]2c2nc(-c3ccccc3)c[nH]2)cc1` [Example K12], under setting [1], the EC50 lay in the range of 5000 to 50000 nM. For `CC1(C)[C@@H](c2ccc(S(N)(=O)=O)cc2)[C@@H]1c1nc(C2CCCC2)co1` [Example K17], the EC50 is 100 to 500 nM under setting [1] and 130 nM under setting [2]. The like results for `CC(C)c1noc([C@@H]2C[C@H]2c2ccc(S(N)(=O)=O)cc2)n1` [Example D11] were, in that order, 100 to 500 nM and 430 nM. `CC1(C)[C@@H](c2ccc(S(N)(=O)=O)cc2)[C@@H]1c1nnc(C2CC2)s1` [Example G15]: the EC50 under setting [1] fell in the range of 500 to 5000 nM. Consider `NS(=O)(=O)c1ccc([C@@H]2C[C@H]2c2nc(C3(c4ccccc4)CC3)no2)cc1` [Example D23], for which the EC50 is, setting by setting: under setting [1], 500 to 5000 nM; under setting [2], 2100 nM. For `CC(C)(C)c1coc([C@H]2[C@H](c3ccc(S(N)(=O)=O)cc3)C2(C)C)n1` [Example K7], in that order: 500 to 5000 nM and 620 nM. Take `NS(=O)(=O)c1ccc([C@@H]2C[C@H]2c2cnc(C3CCCC3)o2)cc1` [Example L21]: under setting [1], the EC50 lay within 500 to 5000 nM. As for `CC1(C)[C@@H](c2ccc(S(N)(=O)=O)cc2)[C@@H]1c1ncc(C2CCCC2)o1` [Example K14], under setting [1], the EC50 is 500 to 5000 nM. The same measure, in the same setting: next, `CC1(C)[C@@H](c2ccc(S(N)(=O)=O)cc2)[C@@H]1c1noc(-c2cccc(OC(F)(F)C(F)F)c2)n1` [Example H14]: 100 to 500 nM; `NS(=O)(=O)c1ccc([C@@H]2C[C@H]2c2nnc(C3CCCC3)s2)cc1` [Example G16]: 500 to 5000 nM. With `NS(=O)(=O)c1ccc(C2C(c3nc(C4CCCC4)no3)C2(Cl)Cl)cc1` (racemic) [Example M5], under setting [1], the EC50 lay within 100 to 500 nM.

In the case of `CC(F)(F)c1nc([C@H]2[C@H](c3ccc(S(N)(=O)=O)cc3)C2(C)C)no1` [Example I16], the EC50 is 100 to 500 nM under setting [1] and 350 nM under setting [2]. Regarding `Cc1ncoc1-c1noc([C@@H]2C[C@H]2c2ccc(S(N)(=O)=O)cc2)n1` [Example D31], the EC50 under setting [1] lay within 500 to 5000 nM. On to `CC1(C)[C@@H](c2ccc(S(N)(=O)=O)cc2)[C@@H]1c1nnc(C2CCCC2)s1` [Example G14], for which the EC50 by setting is: under setting [1], 500 to 5000 nM; under setting [2], 920 nM. For `NS(=O)(=O)c1ccc([C@@H]2C[C@H]2c2cnc(C3CCCCC3)o2)cc1` [Example 28, 4-[(1R,2R)-2-(2-Cyclohexyl-1,3-oxazol-5-yl)cyclopropyl]benzenesulfonamide], in that order: 100 to 500 nM and 460 nM. For `NS(=O)(=O)c1ccc([C@@H]2C[C@H]2c2cn(-c3cccc(F)c3)nn2)cc1` [Example 26, 4-{(1R,2R)-2-[1-(3-Fluorophenyl)-1H-1,2,3-triazol-4-yl]cyclopropyl}benzenesulfonamide], in that order: 500 to 5000 nM and 1600 nM. For `NS(=O)(=O)c1ccc([C@@H]2C[C@H]2c2noc(C3CCCCC3)n2)cc1` [Example I34], under setting [1], the EC50 was 100 to 500 nM. With `CC1(C)[C@@H](c2ccc(S(N)(=O)=O)cc2)[C@@H]1c1noc(-c2cc(N3CCOC3=O)ccc2F)n1` [Example H7], the EC50 reads like this: under setting [1], 500 to 5000 nM; under setting [2], 2400 nM. For `CCc1coc([C@@H]2C[C@H]2c2ccc(S(N)(=O)=O)cc2)n1` [Example K6], the EC50 under setting [1] was in the range of 500 to 5000 nM. For the compound `NS(=O)(=O)c1ccc([C@@H]2C[C@H]2c2nsc(N3CCCCC3)n2)cc1` [Example 29, 4-{(1R,2R)-2-[5-(Piperidin-1-yl)-1,2,4-thiadiazol-3-yl]cyclopropyl}benzenesulfonamide], the EC50 is, setting by setting: under setting [1], 100 to 500 nM; under setting [2], 140 nM. With `CC1(C)[C@@H](c2ccc(S(N)(=O)=O)cc2)[C@@H]1c1nc(-c2cncc(C(F)(F)F)c2)no1` [Example D17], the EC50 reads like this: under setting [1], 500 to 5000 nM; under setting [2], 2300 nM. Take `Cn1ccc(-c2nc([C@H]3[C@H](c4ccc(S(N)(=O)=O)cc4)C3(C)C)no2)c1` [Example I10]: the EC50 under setting [1] lay in the range of 500 to 5000 nM. On to `CC1(C)[C@H](c2ccc(S(N)(=O)=O)cc2)[C@H]1c1nnc(-c2ccccc2)[nH]1` [Example F5], for which the EC50 was 500 to 5000 nM under setting [1] and 1000 nM under setting [2]. For the compound `Cc1ccc(F)cc1-c1noc([C@H]2[C@H](c3ccc(S(N)(=O)=O)cc3)C2(C)C)n1` [Example 1, 4-((1S,3S)-3-(3-(5-Fluoro-2-methylphenyl)-1,2,4-oxadiazol-5-yl)-2,2-dimethylcyclopropyl)-benzenesulfonamide], the EC50 is, setting by setting: under setting [1], 500 to 5000 nM; under setting [2], 4100 nM. For `NS(=O)(=O)c1ccc([C@@H]2C[C@H]2c2nc(CC3CC3)no2)cc1` [Example D28], the EC50 under setting [1] fell in the range of 500 to 5000 nM. `CC1(C)[C@@H](c2ccc(S(N)(=O)=O)cc2)[C@@H]1c1cc(-c2ccccc2)no1` [Example L4]: the EC50 under setting [1] is 500 to 5000 nM and the EC50 under setting [2] was found to be 640 nM.

Turning to `NS(=O)(=O)c1ccc([C@@H]2C[C@H]2c2noc(C3(C(F)(F)F)CC3)n2)cc1` [Example I35], the EC50 runs as follows: under setting [1], 500 to 5000 nM; under setting [2], 690 nM. Take `Cc1cccc(F)c1-c1nc([C@H]2[C@H](c3ccc(S(N)(=O)=O)cc3)C2(C)C)no1` [Example H6]: the EC50 under setting [1] lay in the range of 100 to 500 nM. Turning to `CC1(C)[C@@H](c2ccc(S(N)(=O)=O)cc2)[C@@H]1c1nc(-c2cnccc2C(F)(F)F)no1` [Example D2], the EC50 under setting [1] is 500 to 5000 nM.

`CC1(C)[C@@H](c2ccc(S(N)(=O)=O)cc2)[C@@H]1c1nnc(C2CCCCC2)s1` [Example G13]: the EC50 is, setting by setting: under setting [1], 500 to 5000 nM; under setting [2], 2200 nM. For `Cc1sc([C@@H]2C[C@H]2c2ccc(S(N)(=O)=O)cc2)nc1-c1ccccc1` [Example 15, 4-[(1R,2R)-2-(5-Methyl-4-phenyl-1,3-thiazol-2-yl)cyclopropyl]benzenesulfonamide], in that order: no more than 100 nM and 71 nM. The like results for `CC1(C)[C@@H](c2ccc(S(N)(=O)=O)cc2)[C@@H]1c1noc(C2CC2)n1` [Example I25] were, in that order, 500 to 5000 nM and 710 nM. For `CC1(C)[C@@H](c2ccc(S(N)(=O)=O)cc2)[C@@H]1c1nnc(-c2c(F)cccc2F)o1` [Example G5], in that order: 500 to 5000 nM and 1300 nM. Consider `COc1ccc(Cl)cc1-c1noc([C@@H]2[C@@H](c3ccc(S(N)(=O)=O)cc3)C2(C)C)n1` [Example A1], for which the EC50 is, setting by setting: under setting [1], 500 to 5000 nM; under setting [2], 2900 nM. As to `CC1(C)[C@H](c2ccc(S(N)(=O)=O)cc2)[C@H]1c1nc(C2CC(F)(F)C2)no1` [Example B8], the EC50 under setting [1] lay in the range of 500 to 5000 nM.

As for `CC1(C)[C@H](c2ccc(S(N)(=O)=O)cc2)[C@H]1c1nc(-c2ccccc2F)no1` [Example A12], the EC50 under setting [1] fell in the range of 500 to 5000 nM.

For `CC1(C)[C@H](c2ccc(S(N)(=O)=O)cc2)[C@H]1c1nnc(-c2c(F)cccc2F)o1` [Example F1], the EC50 under setting [1] was 500 to 5000 nM. Turning to `CC1(C)[C@@H](c2ccc(S(N)(=O)=O)cc2)[C@@H]1c1nnc(-c2c(F)cccc2C(F)(F)F)o1` [Example G17], the EC50 runs as follows: under setting [1], 500 to 5000 nM; under setting [2], 950 nM.

For `CC1(C)[C@@H](c2ccc(S(N)(=O)=O)cc2)[C@@H]1c1noc(CCC2CC2)n1` [Example I33], under setting [1], the EC50 lay within 500 to 5000 nM. For `CC(C)(C)c1cnc([C@@H]2C[C@H]2c2ccc(S(N)(=O)=O)cc2)o1` [Example K4], the EC50 under setting [1] is 500 to 5000 nM. For the compound `CC1(C)[C@@H](c2ccc(S(N)(=O)=O)cc2)[C@@H]1c1nc(C2(C(F)(F)F)CC2)no1` [Example D33], the EC50 under setting [1] lay within 100 to 500 nM and the EC50 under setting [2] was determined as 210 nM. `NS(=O)(=O)c1ccc([C@@H]2C[C@H]2c2nc(Cc3ccc(F)cc3F)no2)cc1` [Example D26]: the EC50 was 500 to 5000 nM under setting [1] and 810 nM under setting [2]. For `NS(=O)(=O)c1ccc([C@@H]2[C@@H](c3ncc(C4CCCC4)o3)C2(F)F)cc1` [Example J11], in that order: 500 to 5000 nM and 730 nM. Turning to `NS(=O)(=O)c1ccc(C2CC2c2coc(-c3ccccc3)n2)cc1` (stereo not drawn) [Example 24, 4-[trans-2-(2-Phenyl-1,3-oxazol-4-yl)cyclopropyl]benzenesulfonamide], the EC50 by setting is: under setting [1], 500 to 5000 nM; under setting [2], 2400 nM. Turning to `CC(c1nc([C@H]2[C@H](c3ccc(S(N)(=O)=O)cc3)C2(C)C)no1)n1ccnc1` (some centres unmarked) [Example I11], the EC50 under setting [1] lay within 5000 to 50000 nM. `CC1(C)[C@H](c2ccc(S(N)(=O)=O)cc2)[C@H]1c1nnc(-c2ccccc2)s1` [Example F4]: the EC50 is 100 to 500 nM under setting [1] and 420 nM under setting [2]. Turning to `CC1(C)[C@@H](c2ccc(S(N)(=O)=O)cc2)[C@@H]1c1noc(Cc2ccc(F)cc2F)n1` [Example I1], the EC50 under setting [1] lay within 100 to 500 nM. As to `NS(=O)(=O)c1ccc([C@H]2C[C@@H]2c2nc(-c3cncc(F)c3)no2)cc1` [Example B5], the EC50 under setting [1] is 5000 to 50000 nM. As for `CC1(C)[C@@H](c2ccc(S(N)(=O)=O)cc2)[C@@H]1c1noc(-c2cccnc2C(F)(F)F)n1` [Example I21], under setting [1], the EC50 lay in the range of 500 to 5000 nM.
